This experiment addresses dihydropteroate synthase (DHPS, FolP1) (Mycobacterium tuberculosis, UniProt P9WND1). The experiment is classed as biochemical.

Chain of dihydropteroate synthase (DHPS, FolP1) (P9WND1 whole entry): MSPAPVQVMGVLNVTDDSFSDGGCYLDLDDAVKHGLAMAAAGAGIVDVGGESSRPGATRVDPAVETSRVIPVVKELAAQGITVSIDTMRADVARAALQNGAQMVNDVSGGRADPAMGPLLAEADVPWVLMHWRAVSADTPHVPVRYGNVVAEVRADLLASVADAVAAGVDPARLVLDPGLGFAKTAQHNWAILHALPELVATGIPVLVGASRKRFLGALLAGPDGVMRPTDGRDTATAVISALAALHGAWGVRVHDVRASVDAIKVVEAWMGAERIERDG

As to `Nc1ccc(C(=O)O)c(O)c1` [PAS, para-aminosalicylic acid], the “in vitro turnover assay with purified recombinant enzyme” value is “purified recombinant enzymes confirmed that PAS was a kinetically and chemically competent substrate for M. tuberculosis FolP1”.

Source of the values: paper PMC3792487 (Science (New York, N.Y.), 2012).
